Consider eight compounds from ChEMBL document CHEMBL1127120, “Benzofuran based angiotensi II antagonists related to GR117289: Part II; amino acid amides” (Bioorg Med Chem Lett, 1993).

Calls of active or inactive are those of the source. The calls are words filed in the database; no cut-off is given here.

The first assay is filed under the species Rattus norvegicus. The experiment in a line: Oral activity in renal artery ligated rat model was determined; no significant activity. The class given is functional, organism-based.
Consider `CCCCc1nc(Cl)c(C(=O)N[C@@H](C)C(=O)O)n1Cc1ccc2oc(-c3ccccc3-c3nn[nH]n3)c(Br)c2c1`, for which the result was inactive. The same measure, in the same setting: in the case of `CCCCc1nc(Cl)c(C(=O)NCC(=O)O)n1Cc1ccc2oc(-c3ccccc3-c3nn[nH]n3)c(Br)c2c1` it was “inactive”; in that of `CCCCc1nc(Cl)c(C(=O)NCC(N)=O)n1Cc1ccc2oc(-c3ccccc3-c3nn[nH]n3)c(Br)c2c1`, “inactive”; in that of `CCCCc1nc(Cl)c(C(=O)N[C@H](Cc2ccccc2)C(=O)O)n1Cc1ccc2oc(-c3ccccc3-c3nn[nH]n3)c(Br)c2c1`, “inactive”.

For `CCCCc1nc(Cl)c(C(=O)N[C@H](C)C(=O)O)n1Cc1ccc2oc(-c3ccccc3-c3nn[nH]n3)c(Br)c2c1`, the outcome was inactive. As to `CCCCc1nc(Cl)c(C(=O)N[C@@H](C(=O)O)[C@H](C)CC)n1Cc1ccc2oc(-c3ccccc3-c3nn[nH]n3)c(Br)c2c1`, the outcome was inactive.

For a further assay, the target named is T1, Type-1 angiotensin II receptor (Oryctolagus cuniculus) (UniProt P34976).
T1 sequence (whole entry): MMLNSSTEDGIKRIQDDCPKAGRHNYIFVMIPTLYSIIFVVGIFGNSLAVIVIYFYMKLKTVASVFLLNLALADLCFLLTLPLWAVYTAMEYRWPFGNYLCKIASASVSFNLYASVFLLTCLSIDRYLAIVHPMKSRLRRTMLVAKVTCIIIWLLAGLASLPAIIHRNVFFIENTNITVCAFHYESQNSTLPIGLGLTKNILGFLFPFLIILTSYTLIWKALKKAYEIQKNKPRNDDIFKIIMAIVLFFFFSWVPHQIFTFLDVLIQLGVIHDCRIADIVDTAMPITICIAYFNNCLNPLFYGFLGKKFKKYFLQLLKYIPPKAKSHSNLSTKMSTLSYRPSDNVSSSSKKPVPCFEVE
Nature of the assay: Affinity for Angiotensin II receptor, type 1 as antagonism of angII contractile effect in rabbit isolated thoracic aorta. The assay is classed as functional, tissue-based.
On to `CCCCc1nc(Cl)c(C(=O)N[C@@H](C)C(=O)O)n1Cc1ccc2oc(-c3ccccc3-c3nn[nH]n3)c(Br)c2c1`, for which the pKB is 8.9. The same measure, in the same setting: in the case of `CCCCc1nc(Cl)c(C(=O)NCC(=O)O)n1Cc1ccc2oc(-c3ccccc3-c3nn[nH]n3)c(Br)c2c1` it was 9.4; in that of `CCCCc1nc(Cl)c(C(=O)NCC(N)=O)n1Cc1ccc2oc(-c3ccccc3-c3nn[nH]n3)c(Br)c2c1`, 9.4. The compound `CCCCc1nc(Cl)c(C(=O)N[C@H](Cc2ccccc2)C(=O)O)n1Cc1ccc2oc(-c3ccccc3-c3nn[nH]n3)c(Br)c2c1` returned a pKB of 8.

Turning to `CCCCc1nc(Cl)c(C(=O)N[C@H](C)C(=O)O)n1Cc1ccc2oc(-c3ccccc3-c3nn[nH]n3)c(Br)c2c1`, the pKB was 9. The same measure, in the same setting: in the case of `CCCCc1nc(Cl)c(C(=O)NCC(=O)OCC)n1Cc1ccc2oc(-c3ccccc3-c3nn[nH]n3)c(Br)c2c1` it was 9.3; in that of `CCCCc1nc(Cl)c(C(=O)N[C@@H](C(=O)O)[C@H](C)CC)n1Cc1ccc2oc(-c3ccccc3-c3nn[nH]n3)c(Br)c2c1`, 9.2; in that of `CCCCc1ncc(C=C(Cc2cccs2)C(=O)O)n1Cc1ccc2oc(-c3ccccc3-c3nn[nH]n3)c(Br)c2c1`, 10.9.

The subject of a further assay is Rattus norvegicus. The experiment in a line: Oral activity in renal artery ligated rat model was determined; excellent significant activity causing large and sustained fall in blood pressure at a dose of 1 mg/Kg. The assay is classed as functional, organism-based.
In the case of `CCCCc1nc(Cl)c(C(=O)NCC(=O)OCC)n1Cc1ccc2oc(-c3ccccc3-c3nn[nH]n3)c(Br)c2c1`, the result was Active.

Usually pKB stands for the negative decadic logarithm of the KB, by convention in mol/L. Low readings indicate a high KB, high ones a low KB.
